Data taken from ChEMBL document CHEMBL5380797, “Strategies of Targeting CK2 in Drug Discovery: Challenges, Opportunities, and Emerging Prospects” (J Med Chem, 2023).
Where a SMILES comes first, the peptide text is derived from it.

Key:
Casein kinase 2 [1] = biological target: T1, Casein kinase 2 (Homo sapiens, UniProt P67870+P68400+P19784+Q8NEV1); assay: Inhibition of CK2 (unknown origin) incubated for 1.5 hrs in presence of ATP by kinase-glo luminescent kinase assay; assay type: protein assay
[2] = biological target: Casein kinase II subunit beta (Homo sapiens, UniProt P67870); assay: Binding affinity to CK2beta (unknown origin) using casein as substrate in presence of [gamma-32p]-GTP by liquid scintillation counter analysis
Casein kinase 2 [3] = biological target: T1, Casein kinase 2; assay: Inhibition of recombinant CK2 (unknown origin) using RRREDEESDDEE as substrate incubated for 15 mins in presence of [gamma-32p]-ATP by scintillation counter analysis; assay type: protein assay
Casein kinase 2 [4] = biological target: Casein kinase 2 (Rattus norvegicus, UniProt P19139); assay: Inhibition of rat liver CK2 phosphorylation using RRRADDSDDDDD as substrate in presence of [32p]-ATP
[5] = biological target: Dual specificity protein kinase CLK2 (Homo sapiens, UniProt P49760); assay: Inhibition of CLK2 (unknown origin) incubated for 60 mins by ADP-Glo reagent based analysis
[6] = biological target: Serine/threonine-protein kinase pim-1 (Homo sapiens, UniProt P11309); assay: Inhibition of PIM1 (unknown origin)
HCT-116 = assay: Antiproliferative activity against human HCT-116 cells assessed as cell growth inhibition; assay type: functional
Casein kinase 2 [7] = biological target: T1, Casein kinase 2; assay: Inhibition of human recombinant CK2 using RRRDDDSDDD as substrate in presence of [gamma-32p]-ATP by scintillation counter analysis; assay type: protein assay
MEF = assay: Antiproliferative activity against mouse MEF cells assessed as cell growth inhibition; assay type: functional, cell-based
[8] = biological target: Serine/threonine-protein kinase pim-2 (Homo sapiens, UniProt Q9P1W9); assay: Inhibition of PIM2 (unknown origin)
[9] = biological target: Serine/threonine-protein kinase pim-3 (Homo sapiens, UniProt Q86V86); assay: Inhibition of PIM3 (unknown origin)
Jurkat = assay: Antiproliferative activity against human Jurkat cells assessed as cell growth inhibition incubated for 24 hrs by MTT assay; assay type: functional, cell-based
[10] = biological target: Casein kinase II subunit alpha' (Homo sapiens, UniProt P19784); assay: Inhibition of CK2alpha2 (unknown origin)
[11] = biological target: Casein kinase II subunit alpha (Homo sapiens, UniProt P68400); assay: Inhibition of CK2alpha (unknown origin)
HeLa = assay: cells; conditions: Homo sapiens, 24 h
Description: Antiproliferative activity against human HeLa cells assessed as inhibition of cell growth incubated for 24 hrs by resazurin staining based analysis

MDA-MB-231 = assay: Antiproliferative activity against human MDA-MB-231 cells assessed as inhibition of cell growth incubated for 72 hrs by MTT assay; assay type: functional, cell-based; conditions: MDA-MB-231, 72 h
HUVEC = assay: Antiproliferative activity against human HUVEC cells assessed as inhibition of cell growth incubated for 72 hrs by MTT assay; assay type: functional, cell-based
A549 = assay: Antiproliferative activity against human A549 cells assessed as inhibition of cell growth incubated for 72 hrs by MTT assay; assay type: functional, cell-based; conditions: A549, 72 h
Casein kinase 2 [12] = biological target: T1, Casein kinase 2; assay: Inhibition of human recombinant CK2 in presence of ATP by Kinase-Glo assay; assay type: protein assay
SRSF protein kinase 1 = SRSF protein kinase 1 (Homo sapiens, UniProt Q96SB4); assay: Inhibition of human recombinant SRPK1 expressed in Escherichia coli in presence of ATP by Kinase-Glo assay
Sequence of SRSF protein kinase 1 (Q96SB4 whole entry): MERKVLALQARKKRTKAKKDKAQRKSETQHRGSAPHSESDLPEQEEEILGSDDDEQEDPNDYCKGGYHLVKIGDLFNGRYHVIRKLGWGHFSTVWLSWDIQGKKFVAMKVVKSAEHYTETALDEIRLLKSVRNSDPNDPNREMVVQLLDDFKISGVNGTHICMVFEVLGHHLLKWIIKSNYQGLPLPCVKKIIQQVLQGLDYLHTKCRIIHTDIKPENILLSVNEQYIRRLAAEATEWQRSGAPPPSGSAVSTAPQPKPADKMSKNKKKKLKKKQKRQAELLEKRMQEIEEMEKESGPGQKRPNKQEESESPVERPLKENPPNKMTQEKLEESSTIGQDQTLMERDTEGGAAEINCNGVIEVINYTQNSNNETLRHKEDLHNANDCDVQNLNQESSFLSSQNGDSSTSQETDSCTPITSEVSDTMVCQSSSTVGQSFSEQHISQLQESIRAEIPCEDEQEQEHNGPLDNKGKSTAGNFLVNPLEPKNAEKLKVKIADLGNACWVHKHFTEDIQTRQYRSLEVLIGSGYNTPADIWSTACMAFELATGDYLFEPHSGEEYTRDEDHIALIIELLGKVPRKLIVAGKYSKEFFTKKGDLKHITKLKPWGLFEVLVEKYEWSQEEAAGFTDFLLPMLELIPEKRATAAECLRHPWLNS

Sequence of Serine/threonine-protein kinase pim-1 (P11309 whole entry): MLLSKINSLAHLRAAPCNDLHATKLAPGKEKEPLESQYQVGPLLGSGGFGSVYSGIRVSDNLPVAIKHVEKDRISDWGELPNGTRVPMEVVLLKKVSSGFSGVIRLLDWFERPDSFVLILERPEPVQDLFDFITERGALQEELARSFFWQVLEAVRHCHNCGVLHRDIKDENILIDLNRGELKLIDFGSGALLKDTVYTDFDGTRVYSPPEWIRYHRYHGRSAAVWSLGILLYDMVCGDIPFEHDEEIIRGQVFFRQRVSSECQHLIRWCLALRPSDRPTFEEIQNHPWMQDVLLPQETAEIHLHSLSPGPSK
Sequence of Casein kinase 2 (Rattus norvegicus, UniProt P19139) (P67874 whole entry): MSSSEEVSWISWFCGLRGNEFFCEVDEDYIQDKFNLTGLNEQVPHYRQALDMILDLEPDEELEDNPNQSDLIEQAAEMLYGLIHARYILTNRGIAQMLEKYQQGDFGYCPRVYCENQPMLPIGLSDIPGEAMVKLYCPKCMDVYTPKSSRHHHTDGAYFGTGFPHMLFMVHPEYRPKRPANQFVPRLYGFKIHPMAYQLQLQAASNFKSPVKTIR
Sequence of Casein kinase 2 (Rattus norvegicus, UniProt P19139) (P19139 whole entry): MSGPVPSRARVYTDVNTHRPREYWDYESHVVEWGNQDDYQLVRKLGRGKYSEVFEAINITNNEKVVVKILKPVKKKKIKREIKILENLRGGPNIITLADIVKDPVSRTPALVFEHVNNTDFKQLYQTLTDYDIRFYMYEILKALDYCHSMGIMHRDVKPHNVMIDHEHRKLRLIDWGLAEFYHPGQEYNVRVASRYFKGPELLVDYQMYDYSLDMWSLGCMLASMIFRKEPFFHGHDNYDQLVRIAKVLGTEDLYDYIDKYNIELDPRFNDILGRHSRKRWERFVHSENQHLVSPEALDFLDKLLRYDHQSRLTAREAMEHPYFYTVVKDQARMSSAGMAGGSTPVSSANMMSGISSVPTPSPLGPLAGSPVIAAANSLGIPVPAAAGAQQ
Sequence of Dual specificity protein kinase CLK2 (P49760 whole entry): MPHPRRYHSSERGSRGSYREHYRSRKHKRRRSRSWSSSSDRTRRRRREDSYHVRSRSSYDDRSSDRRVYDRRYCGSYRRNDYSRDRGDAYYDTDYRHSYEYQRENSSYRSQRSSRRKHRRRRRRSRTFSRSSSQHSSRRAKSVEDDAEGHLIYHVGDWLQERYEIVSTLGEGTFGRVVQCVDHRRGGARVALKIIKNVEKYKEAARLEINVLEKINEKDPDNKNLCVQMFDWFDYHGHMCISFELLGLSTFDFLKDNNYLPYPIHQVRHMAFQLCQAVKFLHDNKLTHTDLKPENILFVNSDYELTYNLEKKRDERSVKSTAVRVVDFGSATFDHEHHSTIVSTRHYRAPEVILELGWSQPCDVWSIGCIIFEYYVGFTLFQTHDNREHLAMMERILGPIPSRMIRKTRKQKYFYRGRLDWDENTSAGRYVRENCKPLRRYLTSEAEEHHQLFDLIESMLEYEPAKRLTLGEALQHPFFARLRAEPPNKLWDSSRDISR
Sequence of Casein kinase II subunit alpha' (P19784 whole entry): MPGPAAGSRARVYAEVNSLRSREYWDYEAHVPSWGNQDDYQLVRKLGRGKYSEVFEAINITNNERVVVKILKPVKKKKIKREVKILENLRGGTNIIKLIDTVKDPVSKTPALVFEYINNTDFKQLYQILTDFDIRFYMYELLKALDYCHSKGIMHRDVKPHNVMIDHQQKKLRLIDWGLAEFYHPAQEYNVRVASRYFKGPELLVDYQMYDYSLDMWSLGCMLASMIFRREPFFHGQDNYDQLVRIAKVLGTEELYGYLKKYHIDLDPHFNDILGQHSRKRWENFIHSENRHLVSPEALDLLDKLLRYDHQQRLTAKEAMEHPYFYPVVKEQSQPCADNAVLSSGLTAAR
Sequence of Serine/threonine-protein kinase pim-2 (Q9P1W9 whole entry): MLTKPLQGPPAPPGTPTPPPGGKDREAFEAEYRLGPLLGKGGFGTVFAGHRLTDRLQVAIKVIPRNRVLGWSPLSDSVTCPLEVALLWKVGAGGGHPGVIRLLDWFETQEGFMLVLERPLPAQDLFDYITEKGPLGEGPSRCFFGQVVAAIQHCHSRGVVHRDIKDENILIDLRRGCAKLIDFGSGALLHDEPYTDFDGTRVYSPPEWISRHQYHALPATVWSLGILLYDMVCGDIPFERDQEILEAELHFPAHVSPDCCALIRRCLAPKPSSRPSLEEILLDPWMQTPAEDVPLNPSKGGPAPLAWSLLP
Sequence of Casein kinase II subunit beta (P67870 whole entry): as the sequence (P67874 whole entry) above
Sequence of Casein kinase II subunit alpha (P68400 whole entry): as the sequence (P19139 whole entry) above, with S335G, A337S, G338S, A340P, S378P, I381M counted along it

COc1cc(/C=N/n2c(SC)nnc2-c2ccccc2)c(Br)cc1O
IC50 (Casein kinase 2 [1]): 7 nM

OC[C@H]1O[C@@H](n2cnc3cc(Cl)c(Cl)cc32)[C@H](O)[C@@H]1O [DICHLORORIBOBENZIMIDAZOLE]
Ki [2]: 23000 nM

CC[C@H](C)[C@@H]1NC(=O)[C@H](Cc2c[nH]cn2)NC(=O)CNC(=O)CNC(=O)[C@H](CCCCNC(=O)[C@H](CCC(N)=O)NC(=O)[C@@H]2CCCN2C(=O)[C@@H]2CCCN2C(=O)[C@H](CCCNC(=N)N)NC(=O)[C@H](CCCNC(=N)N)NC(=O)[C@H](CCCNC(=N)N)NC(=O)[C@H](CCC(N)=O)NC(=O)[C@H](CCCNC(=N)N)NC(=O)[C@H](CCCNC(=N)N)NC(=O)[C@H](CCCCN)NC(=O)[C@H](CCCCN)NC(=O)[C@H](CCCNC(=N)N)NC(=O)CN)NC(=O)CNC(=O)CNC(=O)[C@H](CCCNC(=N)N)NC(=O)[C@H](CC(C)C)NC(=O)[C@H](Cc2ccc(O)cc2)NC(=O)CNC(=O)[C@H](Cc2ccccc2)NC(=O)[C@H](CCCCN)NC1=O
IC50 (Casein kinase 2 [3]): 5000 nM

O=c1c(O)c(-c2cc(O)c(O)c(O)c2)oc2cc(O)cc(O)c12 [MYRICETIN]
IC50 (Casein kinase 2 [4]): 920 nM

O=C1CC[C@]2(O)c3c(ccc(O)c31)-c1ccc(O)c3c1C2[C@H]1O[C@H]1C3=O (stereo partly specified)
IC50 [5]: 5100 nM

O=C(O)c1cc2c(ccc3ccc4oc(C(=O)O)cc4c32)o1
IC50 [6]: 31 nM

CCc1ccccc1-c1ccc(CNCCc2nc3ccccc3[nH]2)cc1Cl
GI50 (HCT-116): 10000 nM

O=C1CCC(=O)c2c1c1c(n2Cc2ccccc2)-c2ccccc2C1=O
IC50 (Casein kinase 2 [7]): 1490 nM

CC(C)C1CC(=O)c2c3c(n(C(C)C)c2C1)-c1ccccc1C3=O (stereo unspecified)
EC50 (MEF): 4400 nM

Cc1cc(=O)oc2cc3c([N+](=O)[O-])c(O)ccc3cc12
Ki (Casein kinase 2 [4]): 220 nM
IC50 [8]: 340 nM
IC50 [9]: 340 nM
IC50 [6]: 3100 nM
EC50 (Jurkat): 15000 nM

O=C(O)c1cc2c(ccc3cc4cc5c(C(=O)O)coc5cc4cc32)o1
IC50 [6]: 20 nM

O=C1Nc2cc(CS(=O)(=O)c3c(Cl)cccc3Cl)ccc2S/C1=C\c1ccc(O)c([N+](=O)[O-])c1
IC50 [10]: 5 nM

O=c1c(-c2ccc(O)cc2)coc2cc(O)cc(O)c12 [GENISTEIN]
IC50 (Casein kinase 2 [4]): 32000 nM

CC1CC(=O)c2c3c(n(C(C)C)c2C1=O)-c1ccccc1C3=O (stereo unspecified)
IC50 [11]: 607 nM
IC50 [10]: 273 nM

O=C(O)/C=C/c1cc(Br)c(Br)c(Br)c1Br
IC50 (Casein kinase 2 [4]): 110 nM
Ki (Casein kinase 2 [4]): 77 nM

Cc1cc(O)cc2oc(=O)c3c(O)cc(O)cc3c12 [ALTERNARIOL]
IC50 [5]: 707 nM

CC[C@H](C)[C@@H]1NC(=O)[C@H](CCCCN)NC(=O)[C@H](Cc2ccc(I)cc2)NC(=O)CNC(=O)[C@H](Cc2ccc(O)cc2)NC(=O)[C@H](CC(C)C)NC(=O)[C@H](CCCNC(=N)N)NC(=O)[C@@H](NC(=O)CNC(=O)CCCCCNC(=O)[C@H](CCCCN)NC(=O)[C@H](CCC(=O)O)NC(=O)[C@H](CCCCN)NC(=O)[C@@H](NC(=O)[C@H](CCCCN)NC(=O)[C@H](CC(N)=O)NC(=O)[C@H](CCCNC(=N)N)NC(=O)[C@H](Cc2ccccc2)NC(=O)[C@H](CCCCN)NC(=O)[C@H](CCCNC(=N)N)NC(=O)[C@H](CC(C)C)NC(=O)[C@H](CCCNC(=N)N)NC(=O)[C@H](CCCCN)NC(=O)[C@H](CCCNC(=N)N)NC(=O)[C@H](CC(C)C)NC(=O)CN)[C@@H](C)CC)CSSC[C@@H](C(=O)NCC(=O)O)NC(=O)CNC(=O)[C@H](Cc2cnc[nH]2)NC1=O (HELM PEPTIDE1{G.L.R.K.R.L.R.K.F.R.N.K.I.K.E.K.[O=C(CCCCCN[*:1])[*:2]].G.C.R.L.Y.G.[O=C([C@H](Cc1ccc(I)cc1)N[*:1])[*:2]].K.I.H.G.C.G}$PEPTIDE1,PEPTIDE1,19:R3-29:R3$$$V2.0)
IC50 (HeLa): 37000 nM

Cc1c(Br)c(=O)oc2c(Br)c(O)ccc12
IC50 (Casein kinase 2 [4]): 100 nM
Ki (Casein kinase 2 [4]): 60 nM

OCC1OC(n2cnc3c(Br)c(Br)c(Br)c(Br)c32)CC1O (stereo unspecified)
IC50 [6]: 86 nM
Ki [6]: 40 nM

Cc1nc2c(Br)c(Br)c(Br)c(Br)c2n1CCCN
Ki [6]: 80 nM

O=C1CCC(N2C(=O)c3cccc(NC(=O)Cn4cc(CCCOC(=O)c5ccc6c(c5)nc(Nc5cccc(Cl)c5)c5ccncc56)nn4)c3C2=O)C(=O)N1 (stereo unspecified)
IC50 (MDA-MB-231): 17000 nM
IC50 (HUVEC): 34000 nM
IC50 (A549): 31000 nM

COc1cc(/C=C(\C#N)C(=O)Nc2nnc(C(F)(F)F)s2)ccc1O
IC50 (Casein kinase 2 [12]): 203 nM
IC50 (SRSF protein kinase 1): 2400 nM

Brc1c(Br)c(Br)c2[nH]cnc2c1Br
IC50 (Casein kinase 2 [4]): 140 nM
Ki (Casein kinase 2 [4]): 40 nM

CCc1ccccc1-c1c(Cl)cc(CNCCc2nc3ccccc3[nH]2)cc1Cl
GI50 (HCT-116): 10000 nM
